For experiment [1], the target named is T1, human RORγt ligand binding domain (RORγt LBD) (Homo sapiens, UniProt P51449).
T1 construct: His-tag (N); TurboTEV protease cleavage site (ENLYFQG) (N); made in house; host or cells: E. coli (pHIS1, modified pET vector)
T1 sequence (P51449 with tags, fused parts or gaps): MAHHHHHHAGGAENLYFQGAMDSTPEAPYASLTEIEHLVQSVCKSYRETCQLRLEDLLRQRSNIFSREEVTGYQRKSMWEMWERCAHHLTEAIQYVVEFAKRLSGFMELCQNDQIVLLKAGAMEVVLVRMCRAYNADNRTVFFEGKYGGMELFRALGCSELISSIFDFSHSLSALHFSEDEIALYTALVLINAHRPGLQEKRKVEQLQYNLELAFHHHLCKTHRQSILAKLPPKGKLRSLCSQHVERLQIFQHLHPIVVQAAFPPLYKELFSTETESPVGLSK
Briefly: RORγt ThermoFluor assay (thermal shift, ligand binding affinity). The conditions noted are these: estimated from concentration response of thermal shift. The essentials:
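Thermal shift of 0.065 mg/mL RORγt with 60 μM 1,8-ANS in 100 mM Hepes pH 7.0, 10 mM NaCl, 2.5 mM GSH, 0.002% Tween-20. Compounds in 1:2 series from 10 mM DMSO stock. Dye fluorescence (500 nm emission) tracked versus temperature; ΔTm used to derive KD.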

For experiment [2], the system named is IL-17 production by CD4 T cells. Briefly: Human Th17 assay (IL-17 production by CD4 T cells under Th17 differentiation conditions). The conditions noted are these: IL-17 in supernatant after 3 days. The format is cell-based. As for the experimental part: The human Th17 assay tests the effect of RORγt modulatory compounds on IL-17 production by CD4 T cells under conditions which favor Th17 differentiation. Total CD4^+ T cells were isolated from the peripheral blood mononuclear cells (PBMC) of healthy donors using a CD4^+ T cell isolation kit II, following the manufacturer's instructions (Miltenyi Biotec). […] 50 μL of compound at titrated concentrations in DMSO were added into each well at final DMSO concentration at 0.2%. Cells were incubated for 1 hour, then 50 μL of Th17 cell differentiation medium was added to each well. The final concentrations of antibodies and cytokines (R&D Systems) in differentiation medium were: 3×10^6/mL anti-CD3/CD28 beads (prepared using human T cell activation/expansion kit, Miltenyi Biotec), 10 μg/mL anti-IL4, 10 μg/mL anti-IFNγ, 10 ng/mL IL113, 10 ng/mL IL23, 50 ng/mL IL6, 3 ng/mL TGFβ and 20 U/mL IL2. Cells were cultured at 37° C. and 5% CO2 for 3 days. Supernatants were collected and the accumulated IL-17 in culture was measured by using MULTI-SPOT® Cytokine Plate following manufacture's instruction (Meso Scale Discovery). The plate was read using Sector Imager 6000, and IL-17 concentration was extrapolated from the standard curve. The IC50s were determined by GraphPad.

The target of a further experiment is T2, human RORγt LBD (Homo sapiens, UniProt P51449).
T2 construct: expressed in transfected cells
T2 sequence (P51449 258-518): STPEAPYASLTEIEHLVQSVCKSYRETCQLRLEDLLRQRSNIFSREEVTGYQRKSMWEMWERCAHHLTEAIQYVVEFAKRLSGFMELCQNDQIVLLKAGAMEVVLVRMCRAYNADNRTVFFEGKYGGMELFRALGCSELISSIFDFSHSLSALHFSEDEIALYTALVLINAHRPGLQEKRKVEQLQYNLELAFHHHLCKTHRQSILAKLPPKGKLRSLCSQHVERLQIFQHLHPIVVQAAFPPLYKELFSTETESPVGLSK
Briefly: RORγt reporter assay (GAL4-RORγt LBD luciferase in HEK293T cells). The format is cell-based. The conditions noted are these: for IC50: HEK293T cells, 24 hours compound treatment; for inhibition at 6 µM: HEK-293T, read-out: RORγt reporter Assay, % inhibition @ 6 μM, HEK293T cells, 6 μM compound. The essentials: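 HEK293T cells transiently co-transfected with pBIND (GAL4 DBD fused to wild-type human RORγt LBD, plus SV40-driven renilla luciferase) and pGL4.31 GAL4-responsive firefly luciferase reporter. Plated in phenol-red-free DMEM with 5% lipid-reduced FCS and treated with compound for 24 h. Firefly/renilla luminescence ratio plotted against compound concentration.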
On the technique in general: A reporter such as luciferase makes a cellular process visible.

Values joined by “and” are separate entries in the source; they are usually repeats but may differ in a detail not shown here. Equal entries are not always repeated. Structures can show the parent of a compound that is named as a salt.

As to `OC(c1ccccc1)(c1cccnc1)c1ccc2nc(Cl)c(-c3ccccc3Cl)c(Cl)c2c1` (centres unmarked) [Example 6, (2,4-Dichloro-3-(2-chlorophenyl)quinolin-6-yl)(phenyl)(pyridin-3-yl)methanol], the Kd in experiment [1] is 74 nM. This compound also had an IC50 in experiment [2] (Homo sapiens, CD4+ T, 72 h) of approximately 6000 nM. Also, on human RORγt LBD, 240 nM corresponded to half-maximal inhibition (IC50) and the inhibition at 6 µM stood at 90%.
As to `COc1ccc(C(O)(c2ccc3nc(Cl)c(-c4ccccc4)c(Cl)c3c2)c2cncn2C)cn1` (centres unmarked) [Example 10, (2,4-Dichloro-3-phenylquinolin-6-yl)(6-methoxypyridin-3-yl)(1-methyl-1H-imidazol-5-yl)methanol•TFA], the dissociation constant Kd in experiment [1] was 29 nM. For the same compound, the IC50 in experiment [2] (Homo sapiens, CD4+ T, 72 h) amounted to 590 nM. Further, at human RORγt LBD, the IC50 worked out at 150 nM and the inhibition at 6 µM worked out at 98%.
The like results for `Cn1cncc1C(O)(c1ccc(F)nc1)c1ccc2nc(Cl)c(-c3ccccc3)c(Cl)c2c1` (centres unmarked) [Example 12, (2,4-Dichloro-3-phenylquinolin-6-yl)(6-fluoropyridin-3-yl)(1-methyl-1H-imidazol-5-yl)methanol•TFA] were, in that order, 22 nM, 330 nM, approximately 100 nM and 103%.
The like results for `Cn1cncc1C(O)(c1ccc(Cl)nc1)c1ccc2nc(Cl)c(-c3ccccc3)c(Cl)c2c1` (centres unmarked) [Example 13] were, in that order, 15 nM, 530 nM, 85 nM and 106%.
On the same counts, the results for `OC(c1ccc(Cl)cc1)(c1cccnc1)c1ccc2nc(Cl)c(-c3ccccc3)c(Cl)c2c1` (centres unmarked) [Example 17, (4-Chlorophenyl)(2,4-dichloro-3-phenylquinolin-6-yl)(pyridin-3-yl)methanol] are 210 nM, 940 nM, 270 nM and 102%.
As to `Cn1cncc1C(O)(c1ccncc1)c1ccc2nc(N3CCOCC3)c(-c3ccccc3)c(Cl)c2c1` (centres unmarked) [Example 20, (4-Chloro-2-morpholin-4-yl-3-phenylquinolin-6-yl)(1-methyl-1H-imidazol-5-yl)pyridin-4-ylmethanol•TFA], in experiment [1], the dissociation constant (Kd) is 130 nM. In experiment [2] (Homo sapiens, CD4+ T, 72 h), this compound had a concentration for half-maximal inhibition (IC50) of 520 nM. For the same compound, at human RORγt LBD, the IC50 was 330 nM and the inhibition at 6 µM stood at 104%.
The like results for `OC(c1ccncc1)(c1ccncc1)c1ccc2nc(Cl)c(-c3ccccc3)c(Cl)c2c1` [Example 21, (2,4-Dichloro-3-phenylquinolin-6-yl)(dipyridin-4-yl)methanol•TFA] were, in that order, 120 nM, approximately 900 nM, 860 nM and 91%.
The like results for `OC(c1ccc(F)cc1)(c1cccnc1)c1ccc2nc(Cl)c(-c3ccccc3)c(Cl)c2c1` (centres unmarked) [Example 22, (2,4-Dichloro-3-phenylquinolin-6-yl)(4-fluorophenyl)pyridin-3-ylmethanol] were, in that order, 75 nM, 440 nM, 220 nM and 104%.
Turning to `OC(c1cccnc1)(c1cccnc1)c1ccc2nc(Cl)c(-c3ccccc3)c(Cl)c2c1` [Example 24, (2,4-Dichloro-3-phenylquinolin-6-yl)(dipyridin-3-yl)methanol•TFA], the Kd in experiment [1] was 24 nM. The IC50 was 320 nM in experiment [2] (Homo sapiens, CD4+ T, 72 h); approximately 200 nM in experiment [2]; 79 nM at human RORγt LBD. In addition, the inhibition at 6 µM at human RORγt LBD stood at 104%.
For `OC(c1cccnc1)(c1cccc(Cl)c1)c1ccc2nc(Cl)c(-c3ccccc3)c(Cl)c2c1` (centres unmarked) [Example 25, (3-Chlorophenyl)(2,4-dichloro-3-phenylquinolin-6-yl)(pyridin-3-yl)methanol], the equilibrium dissociation constant (Kd) in experiment [1] is 65 nM. The compound also had an IC50 in experiment [2] (Homo sapiens, CD4+ T, 72 h) of 340 nM. In addition, on human RORγt LBD, the half-inhibitory concentration (IC50) is 94 nM and ~90 nM; the inhibition at 6 µM is 99%.
For the compound `OC(c1cccnc1)(c1ccc2nc(Cl)c(-c3ccccc3)c(Cl)c2c1)c1ccccn1` (centres unmarked) [Example 26, (2,4-Dichloro-3-phenylquinolin-6-yl)(pyridin-2-yl)pyridin-3-ylmethanol•TFA], in experiment [1], the dissociation constant (Kd) is 1300 nM. The half-inhibitory concentration (IC50) in experiment [2] (Homo sapiens, CD4+ T, 72 h) amounted to 2800 nM; on human RORγt LBD, 700 nM. In addition, the inhibition at 6 µM at human RORγt LBD amounted to 100%.
The like results for `Oc1ccc(C(O)(c2cccnc2)c2ccc3nc(Cl)c(-c4ccccc4)c(Cl)c3c2)cc1` (centres unmarked) [Example 29, 4-[(2,4-Dichloro-3-phenylquinolin-6-yl)(hydroxy)pyridin-3-ylmethyl]phenol•HCl] were, in that order, 180 nM, 2800 nM, 260 nM and 95%.
Take `CCc1nc2ccc(C(O)(c3ccc(F)cc3)c3cccnc3)cc2c(Cl)c1-c1ccccc1` (centres unmarked) [Example 30, (4-Chloro-2-ethyl-3-phenylquinolin-6-yl)(4-fluorophenyl)pyridin-3-ylmethanol•TFA]: in experiment [1], the equilibrium dissociation constant (Kd) is 33 nM. Also, the IC50 in experiment [2] (Homo sapiens, CD4+ T, 72 h) is approximately 1000 nM; on human RORγt LBD, approximately 300 nM. For the same compound, the inhibition at 6 µM on human RORγt LBD is 93%.
The like results for `CN(C)c1nc2ccc(C(O)(c3ccc(Cl)cc3)c3cccnc3)cc2c(Cl)c1-c1ccccc1` (centres unmarked) [Example 32, [4-Chloro-2-(dimethylamino)-3-phenylquinolin-6-yl](4-chlorophenyl)pyridin-3-ylmethanol•TFA] were, in that order, 330 nM, 860 nM, 94 nM and 97%.
`CN(C)c1nc2ccc(C(O)(c3cccnc3)c3cncn3C)cc2c(Cl)c1-c1ccccc1` (centres unmarked) [Example 34, [4-Chloro-2-(dimethylamino)-3-phenylquinolin-6-yl](1-methyl-1H-imidazol-5-yl)pyridin-3-ylmethanol•TFA]: in experiment [1], the dissociation constant Kd is 33 nM. The IC50 in experiment [2] (Homo sapiens, CD4+ T, 72 h) came out at 140 nM. Also, at human RORγt LBD, the IC50 was 47 nM and < 50 nM; the inhibition at 6 µM came out at 100%.
Regarding `CN(C)c1c(-c2ccccc2)c(Cl)nc2ccc(C(O)(c3cccnc3)c3cncn3C)cc12` (centres unmarked) [Example 35, [2-Chloro-4-(dimethylamino)-3-phenylquinolin-6-yl](1-methyl-1H-imidazol-5-yl)pyridin-3-ylmethanol•TFA], the Kd in experiment [1] is 330 nM. Further, in experiment [2] (Homo sapiens, CD4+ T, 72 h), inhibition was half-maximal at 770 nM (IC50). Besides, on human RORγt LBD, the IC50 was 340 nM and the inhibition at 6 µM is 97%.
For the compound `CN(C)c1nc2ccc(C(O)(c3ccccn3)c3cncn3C)cc2c(Cl)c1-c1ccccc1` (centres unmarked) [Example 36, [4-Chloro-2-(dimethylamino)-3-phenylquinolin-6-yl](1-methyl-1H-imidazol-5-yl)pyridin-2-ylmethanol•TFA], in experiment [1], the dissociation constant Kd was 2000 nM. The compound further came in with an IC50 in experiment [2] (Homo sapiens, CD4+ T, 72 h) of 1600 nM. Further, at human RORγt LBD, inhibition was half-maximal at 290 nM (IC50) and the inhibition at 6 µM was found to be 98%.
On the same counts, the results for `CN(C)c1nc2ccc(C(O)(c3ccncc3)c3ccncc3)cc2c(Cl)c1-c1ccccc1` [Example 37, [4-Chloro-2-(dimethylamino)-3-phenylquinolin-6-yl](dipyridin-4-yl)methanol•TFA] are 200 nM, approximately 1000 nM, 190 nM and 91%.
`CN(C)c1nc2ccc(C(O)(c3ccc(F)cc3)c3cccnc3)cc2c(Cl)c1-c1ccccc1` (centres unmarked) [Example 38, [4-Chloro-2-(dimethylamino)-3-phenylquinolin-6-yl](4-fluorophenyl)pyridin-3-ylmethanol•TFA]: the Kd in experiment [1] is 37 nM. Further, the midpoint of inhibition in experiment [2] (Homo sapiens, CD4+ T, 72 h), the IC50, lay at 270 nM. On human RORγt LBD, the IC50 was 110 nM and < 50 nM; the inhibition at 6 µM came out at 98%.

As usually defined, the Kd is a measure of binding affinity in units of concentration. In general, IC50 refers to the midpoint of a concentration-inhibition curve. Low readings indicate higher potency, high ones lower potency. A word on the inhibition: it is the drop in the measured response relative to a control, in per cent.

The record behind these values is patent publication US9309222B2, “Phenyl linked quinolinyl modulators of RORγt” (Janssen Pharmaceutica NV, priority 2012, dated 2016).
